From patent EP0477107B1, “Steroids contained in cyclodextrins” (Laboratoires BESINS ISCOVESCO Société anonyme dite :, priority 1990, dated 1992) come the findings set out here.

In brackets after ≈: the same amount, converted by molar mass. Read-outs that look alike come from different tables or passages of the source.

This data set can be described thus: Saturation solubility of steroids in water and in aqueous cyclodextrin solutions (25°, 72 h stirring, filtration, assay of supernatant). Type of data set: physicochemical. How it is done: On réalise des solutions de bétacyclodextrines à différentes concentrations de 0 à 5mM. A ces différentes solutions, on ajoute de la prégnane-5-béta-ol-3alpha-one-20 par pincées et ce jusqu'à apparition d'un précipité. On met sous agitation magnétique à 25° pendant 72 heures en prenant soin de vérifier à intervalles réguliers qu'il y a toujours saturation en stéroïdes. Au bout de 72 heures, on filtre les solutions ainsi réalisées et on dose le surnageant. Les résultats obtenus font l'objet de la courbe de la figure 1.
Excepté la concentration en ladite cyclodextrine qui varie de 0 à 32mM, on procède selon le même protocole qu'à l'exemple 1; les résultats sont illustrés par la courbe de la figure 2.
On procède selon le même protocole qu'à l'exemple 1. Les résultats sont représentés par la courbe de la figure 3.
On travaille selon les mêmes conditions qu'à l'exemple 1. Les résultats obtenus sont schématisés par la courbe de la figure 4.
On suit encore le même protocole qu'à l'exemple 1 sauf en ce que la concentration en bétacyclodextrine varie de 0 à 4mM et les résultats font l'objet de la courbe de la figure 5.
Ici encore on suit le même protocole qu'à l'exemple 1 sauf en ce que la concentration en hydroxypropybéta-cyclodextrine varie de 0 à 32mM et les résultats sont représentés par la courbe de la figure 6.

On to `CC(=O)[C@H]1CC[C@H]2[C@@H]3CC[C@@H]4C[C@H](O)CC[C@]4(C)[C@H]3CC[C@]12C` [Prégnanolone, prégnanol-3alpha-one-20], for which the solubility at 72 h (water + betacyclodextrin, read-out: SOLUBILITE EN GRAMMES PAR LITRE dans eau + bétacyclodextrine) is 440 µg/mL; the solubility at 72 h (water + hydroxypropylbetacyclodextrin, optimal solubility read from the curves at the adequate hydroxypropylbétacyclodextrine concentration (up to 32mM), 25°, 72 h, read-out: SOLUBILITE EN GRAMMES PAR LITRE dans eau + hydroxypropylbétacyclodextrine) was determined as 3000 µg/mL; the solubility at 72 h (water without cyclodextrin, 25°, 72 h, read-out: SOLUBILITE EN GRAMMES PAR LITRE dans l'eau) worked out at 5 µg/mL (≈ 15.7 µM).
With “prégnane-diol-3,20 [Dihydroprogestérone]”, under “optimal solubility read from the curves at the adequate bétacyclodextrine concentration (0 to 5mM; 0 to 4mM for dihydro-4-progestérone), 25°, 72 h”, the “SOLUBILITE EN GRAMMES PAR LITRE dans eau + bétacyclodextrine” value is 0,06 GRAMMES PAR LITRE. For the setting “optimal solubility read from the curves at the adequate hydroxypropylbétacyclodextrine concentration (up to 32mM), 25°, 72 h”, the “SOLUBILITE EN GRAMMES PAR LITRE dans eau + hydroxypropylbétacyclodextrine” value is 1,4 GRAMMES PAR LITRE. In addition, the “SOLUBILITE EN GRAMMES PAR LITRE dans l'eau” value (water without cyclodextrin, 25°, 72 h) is given as 0,005 GRAMMES PAR LITRE.
